Laboratory results taken from US20230312561A1, “SOLID FORMS OF (Z)-METHYL 3-(((4-(N-METHYL-2-(4-METHYLPIPERAZIN-1-YL)ACETAMIDO)PHENYL)AMINO)(PHENYL)METHYLENE)-2-OXO-2,3-DIHYDRO-1H-PYRROLO[2,3-B]PYRIDINE-6-CARBOXYLATE AND SALTS THEREOF” (Angion Biomedica Corp., priority 2020, published 2023).

Tests used:
Format in all cases: physicochemical
[1] = Dynamic Vapor Sorption (DVS) analysis with XRPD after equilibration
Method: Sorption isotherms were obtained using a Hiden Isochema moisture sorption analyzer (model IGAsorp), controlled by IGAsorp Systems Software V6.50.48. The sample was maintained at a constant temperature (25° C.) by the instrument controls. The humidity was controlled by mixing streams of dry and wet nitrogen, with a total flow of 250 mL·min^−1. The instrument was verified for relative humidity content by measuring three calibrated Rotronic salt solutions (10%, 50%, 88%). The weight change of the sample was monitored as a function of humidity by a microbalance (accuracy+/−0.005 mg). A defined amount of sample was placed in a tared mesh stainless steel basket under ambient conditions. A full experimental cycle typically consisted of three scans (sorption, desorption and sorption) at a constant temperature (25° C.) and 10% RH intervals over a 0-90% range (60 minutes for each humidity level). […]
This water content decreased as relative humidity decreased in the first desorption cycle.
The solid absorbed 3.39% water over the humidity range. […] The profile was similar to that of Form C in Example 7.2.

[2] = Drying studies of Compound 1 Hydrochloride (XRPD, TGA)
Method: Compound 1 Hydrochloride Form A was then subjected to drying under various conditions.
Drying studies of Compound 1 Hydrochloride Form A (Type 1 Lot) were performed.
Variability in the drying profiles of different lots of Compound 1 Hydrochloride were noted, particularly with regards to the transition between Form A and Form C. The variable behavior appeared to depend upon the nature of the input Form A batch (e.g., how it was generated and then conditioned, if at all, prior to drying, and/or if excess hydrochloric acid was present).
Concentrated HCl (154 μL, 1 eqiuv) was added which clarified the suspension to a deep orange solution. The mixture was equilibrated for 30 minutes before cooling gradually to room temperature. A thin yellow suspension resulted. The solvent volume was reduced by 50% which thickened the suspension. The suspension was matured overnight, following which the solid was filtered to isolate the solids. The solid was air dried for ˜30 minutes giving a yellow solid (damp mass: 1.24 g; pH measured at 5.0). The XRPD pattern of the damp solid corresponded with Compound 1 Hydrochloride Form H. Analysis of the damp solid by DSC and TGA indicated a water content of 8.2%, which was fairly labile up ˜75° C.
Compound 1 Hydrochloride Form H was then subjected to a drying study under various conditions.
The solids were further subjected to prolonged drying.

[3] = Solid state stability under desiccant conditions (two weeks)
Method: Stability of Compound 1 Hydrochloride Forms A and C was evaluated under desiccant conditions. Compound 1 Hydrochloride Form A (Type 1 Lot) and a mixture comprising Compound 1 Hydrochloride Form A (Type 2 Lot) and Form C were stored under desiccant conditions for a two week period. Solids were then re-analyzed using methods described herein.

[4] = pH-dependent solubility (NaOH titration, pH 3-8); conditions: 25° C.
Method: A titration and solubility determination of Compound 1 Hydrochloride Form A (Type 1 Lot) was performed using NaOH over a pH range of 3-8. A solution was produced at 25° C. with magnetic agitation by combining 100 mg Compound 1 Hydrochloride Form A (Type 1 Lot) into 5 mL deionized water to give a concentration of 20 mg/mL within a clean glass vessel. […] The solution was slowly basified using 1.0 N, 0.1 N, and 0.01 N NaOH (with the lower concentrations being used to finely adjust pH close to the end point target pH and avoid overshooting) to achieve pH values of 4, 5, 5.5, 6, 7, and 8. […] The concentration of the test solution was lowered at pH 6 from 20 mg/mL to 5 mg/mL with repeat testing at each concentration to illustrate salt impact. Each pH value was allowed to equilibrate to stability prior to solubility evaluation via HPLC assessment of the clarified liquors. Dilution by 100× or 50× into the working range was performed using deionized water.

[5] = Biorelevant solubility (water, saline, FaSSIF, FeSSIF, FaSSGF, 37° C.)
Method: Due to pH drift in a previous study (see Example 12.1), in order to obtain a more accurate pH solubility evaluation, a study was designed using water, saline, FaSSIF (fasted state simulated intestinal fluid, pH 6.5), […] (fed state simulated intestinal fluid, pH 5.0), and FaSSGF (fasted state simulated gastric fluid, pH 1.6), which would ensure ending pH and buffer pH remained the same. […] The study design was successful, and all initial pH values were maintained. […] The pH was measured constantly during the addition up to the point of movement in the buffer, at which point additions were halted and the solutions or suspensions matured over 48 hours at 37° C. Samples were taken for solubility evaluation at the specified time-points and clarified through 0.45 micron filters and pH measured on the settled suspensions. Solubility was determined vs a 0.5 mg/mL reference. 35 mg portions were added to FaSSGF and FeSSIF maintaining solutions.

[6] = Dry in vacuo at 25° C., T = 24 h
[7] = Dry in vacuo at 25° C., T = 96 h
[8] = Dry in vacuo at 25° C., T = 120 h
[9] = Dry in vacuo at 45° C., T = 24 h
[10] = Dry in vacuo at 45° C., T = 96 h
[11] = Dry in vacuo at 45° C., T = 120 h
[12] = Dry in vacuo at 70° C., T = 24 h
[13] = Dry in vacuo at 70° C., T = 96 h
[14] = Dry in vacuo at 70° C., T = 120 h

In the case of `COC(=O)c1ccc2c(c1)NC(=O)/C2=C(\Nc1ccc(N(C)C(=O)CN2CCN(C)CC2)cc1)c1ccccc1.Cl` [Compound 1 Hydrochloride Form A (Type 1 Lot)], the “XRPD across the humidity range over the course of DVS analysis” value ([1]; 0-90% RH) is reported as “Form A remained”, the “water absorbed over the humidity range (DVS)” value ([1]; 25° C., 0-90% RH) is reported as 13.4 wt % and the “reversibility of water uptake (DVS)” value ([1]; as relative humidity decreased) is reported as “reversible”. For the same molecule, the “water uptake (DVS)” value ([1]; high humidity, comparison stated in Example 7.3) was “above 13%”, the “water uptake up to 30% RH (DVS)” value ([1]; up to 30% RH) was 8.5 wt % and the “TGA (%)” value [2, 6] was 11.12%. For the same molecule, the XRPD [2, 6] was “Form A”, the “TGA (%)” value [2, 7] was 10.14% and the XRPD [2, 7] was “Form A”. The “TGA (%)” value [2, 8] was 10.47%, the XRPD [2, 8] was “Form A” and the “TGA (%)” value [2, 9] was 9.84%. For the same molecule, the XRPD [2, 9] was “Form A”, the “TGA (%)” value [2, 10] was 8.71% and the XRPD [2, 10] was “Form A”. The “TGA (%)” value [2, 11] was 10.19%, the XRPD [2, 11] was “Form A” and the “TGA (%)” value [2, 12] was 10.48%. For the same molecule, the XRPD [2, 12] was “Form A”, the “TGA (%)” value [2, 13] was 8.19% and the XRPD [2, 13] was “Form A”. For the same molecule, the “TGA (%)” value [2, 14] was 10.85%, the XRPD [2, 14] was “Form A” and the “TGA (%)” value ([2]; T = 0, before drying) was 9.673%. The “Appearance After Storage” value [3] was “Yellow powder”, the TGA weight reduction [3] was “Weight reduction of 5.6%” and the XRPD [3] was “Form A”. The “initial pH reading of solution” value ([4]; 20 mg/mL in deionized water, stable over 10 minutes) was 3.03, the “Solubility” value ([4]; pH 3.03, starting concentration 20 mg/mL) was greater than 20 mg/mL and the “Solubility” value ([4]; pH 4.0, starting concentration 20 mg/mL) was greater than 20 mg/mL. The “Solubility” value ([4]; pH 5.0, starting concentration 20 mg/mL) was 16.0 mg/mL, the “Solubility” value ([4]; pH 5.5, starting concentration 20 mg/mL) was 0.7 mg/mL and the “Solubility” value ([4]; pH 6.0, starting concentration 5 mg/mL) was 0.06 mg/mL. For the same molecule, the “Solubility” value ([4]; pH 6.0, starting concentration 20 mg/mL) was 0.06 mg/mL, the “Solubility” value ([4]; pH 7.0, starting concentration 5 mg/mL) was 0.05 mg/mL and the “Solubility” value ([4]; pH 8.0, starting concentration 5 mg/mL) was 0.001 mg/mL. The solubility in saline [5] was greater than 50 mg/mL, the solubility in water [5] was greater than 50 mg/mL and the “Final pH” value ([5]; 0.9% NaCl) was 3.03. For the same molecule, the “Solubility (mg/mL) T = 1 h” value ([5]; 0.9% NaCl) was greater than 50 mg/mL, the “Solubility (mg/mL) T = 3 h” value ([5]; 0.9% NaCl) was greater than 50 mg/mL and the “Solubility (mg/mL) T = 6 h” value ([5]; 0.9% NaCl) was greater than 50 mg/mL. The “Solubility (mg/mL) T = 24 h” value ([5]; 0.9% NaCl) was greater than 50 mg/mL, the “Final pH” value ([5]; FaSSGF (starting pH 1.6)) was 1.65 and the “Solubility (mg/mL) T = 1 h” value ([5]; FaSSGF (starting pH 1.6)) was greater than 35 mg/mL. The “Solubility (mg/mL) T = 3 h” value ([5]; FaSSGF (starting pH 1.6)) was greater than 35 mg/mL, the “Solubility (mg/mL) T = 6 h” value ([5]; FaSSGF (starting pH 1.6)) was greater than 35 mg/mL and the “Solubility (mg/mL) T = 24 h” value ([5]; FaSSGF (starting pH 1.6)) was greater than 35 mg/mL. The “Final pH” value ([5]; FaSSIF (starting pH 6.5)) was 6.13, the “Solubility (mg/mL) T = 1 h” value ([5]; FaSSIF (starting pH 6.5)) was 2.41 mg/mL and the “Solubility (mg/mL) T = 3 h” value ([5]; FaSSIF (starting pH 6.5)) was 3.38 mg/mL. The “Solubility (mg/mL) T = 6 h” value ([5]; FaSSIF (starting pH 6.5)) was 3.74 mg/mL, the “Solubility (mg/mL) T = 24 h” value ([5]; FaSSIF (starting pH 6.5)) was 5.12 mg/mL and the “Final pH” value ([5]; FeSSIF (starting pH 5.0)) was 4.98. For the same molecule, the “Solubility (mg/mL) T = 1 h” value ([5]; FeSSIF (starting pH 5.0)) was greater than 35 mg/mL, the “Solubility (mg/mL) T = 3 h” value ([5]; FeSSIF (starting pH 5.0)) was greater than 35 mg/mL and the “Solubility (mg/mL) T = 6 h” value ([5]; FeSSIF (starting pH 5.0)) was greater than 35 mg/mL. For the same molecule, the “Solubility (mg/mL) T = 24 h” value ([5]; FeSSIF (starting pH 5.0)) was greater than 35 mg/mL, the “Final pH” value ([5]; Water) was 3.04 and the “Solubility (mg/mL) T = 1 h” value ([5]; Water) was greater than 50 mg/mL. For the same molecule, the “Solubility (mg/mL) T = 3 h” value ([5]; Water) was greater than 50 mg/mL, the “Solubility (mg/mL) T = 6 h” value ([5]; Water) was greater than 50 mg/mL and the “Solubility (mg/mL) T = 24 h” value ([5]; Water) was greater than 50 mg/mL. The “solubility in FeSSIF” value ([5]; pH 5.0) was greater than 50 mg/mL.
